Paper PMC3266923, “Augmenter of Liver Regeneration (alr) Promotes Liver Outgrowth during Zebrafish Hepatogenesis” (PLoS ONE, 2012)

Assays:
zebrafish Alr [1] = biological target: T1, zebrafish Alr (Danio rerio, UniProt A4QNU9); experiment: Ellman's reagent (free thiol) time course; type: biochemical; conditions: room temperature
T1 construct: gene gfer; full-length ORF (191 residues) in pET28b, N-terminal His-tag, expressed in E. coli BL21-DE3, Ni-NTA purified under native condition; about 23 kDa monomer, disulfide-linked dimer

zebrafish Alr [2] = biological target: T2, zebrafish Alr (Danio rerio, UniProt A4QNU9, C131S); experiment: UV-visible absorption spectrum of purified protein; type: binding; conditions: 15 uM protein, free FAD as reference; FAD co-purified from E. coli
T2 construct: gene gfer; full-length ORF (191 residues) in pET28b, N-terminal His-tag, expressed in E. coli BL21-DE3, Ni-NTA purified under native condition; about 23 kDa monomer, disulfide-linked dimer

zebrafish Alr [3] = biological target: T1, zebrafish Alr; experiment: UV-visible absorption spectrum of purified protein; type: binding; conditions: 15 uM protein, free FAD as reference; FAD co-purified from E. coli

T1 sequence (A4QNU9 1-191): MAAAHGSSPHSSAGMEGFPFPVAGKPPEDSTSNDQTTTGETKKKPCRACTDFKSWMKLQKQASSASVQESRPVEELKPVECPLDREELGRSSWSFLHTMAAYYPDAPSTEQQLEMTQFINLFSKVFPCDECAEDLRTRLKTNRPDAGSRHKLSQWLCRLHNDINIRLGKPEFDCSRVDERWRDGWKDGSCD
T2 sequence (A4QNU9 1-191 C131S): as the sequence (A4QNU9 1-191) above, with C131S counted along it

## OC(CS)C(O)CS (stereo not drawn) [DTT]
Zebrafish Alr [1]
  Ellman's reagent (free thiol) time course: Zebrafish Alr oxidized DTT efficiently, while Alr^C131S completely lost this activity

## Cc1cc2nc3c(=O)[nH]c(=O)nc-3n(C[C@H](O)[C@H](O)[C@H](O)COP(=O)(O)OP(=O)(O)OC[C@H]3O[C@@H](n4cnc5c(N)ncnc54)[C@H](O)[C@@H]3O)c2cc1C [FAD]
Zebrafish Alr [2]
  UV-visible absorption spectrum of purified protein: wild type Alr protein and mutant Alr^C131S protein are characteristic of the FAD moiety
Zebrafish Alr [3]
  UV-visible absorption spectrum of purified protein: Zebrafish Alr also binds FAD as determined by spectroscopic absorption
